Paper PMC5339874, “Fluorene-9-bisphenol is anti-oestrogenic and may cause adverse pregnancy outcomes in mice” (Nature Communications, 2017)

Legend:
CD-1 mice = assay: Q-RT-PCR validation of the microarray; format: in vivo; details: 50 mg/kg bw/d BHPF, 3 days
Experimental: The uteri, ovaries and livers were collected for total RNA isolation. Total RNA was isolated using Trizol reagent (Invitrogen) and further purified by NucleoSpin RNA Clean-up (Macherey-Nagel, Germany). Fluorescence labelling of the RNA samples was performed with a Jingxin cRNA linear amplification and labelling kit (CapitalBio) according to the manufacturer's instructions. The total RNA from each pool of tissue samples (a mixture from three animals) was used for microarray analysis. Cy3 dCTP was used to label the samples. The labelled products were added to SurePrint G3 mouse gene expression 8 × 60 K microarrays (Agilent) and incubated overnight at 42 °C. Following hybridization, the gene arrays were washed and scanned using an Agilent G2565CA Microarray Scanner. Glyceraldehyde 3-phosphate dehydrogenase (GAPDH) was used as an endogenous control to monitor the quality of the target preparation. The data were processed with feature extraction software (GeneSpring GX v.11; Agilent). The raw signals were log-transformed and normalized with the percentile shift normalization method. All arrays met the minimum Agilent QA/QC standards. To verify the data from the gene array, 14 genes were chosen as candidates for Q-RT-PCR. Primers are listed in Supplementary Table 4. GAPDH was used as an endogenous control. Amplification was performed using SYBR Green PCR master mix (Applied Biosystems) according to the manufacturer's instructions. The relative expression was quantified using the 2^(−ΔΔCt) method. The Gene Ontology (GO) and KEGG pathway enrichment analyses were performed with DAVID (refs [40], [41]).

female CD-1 mice = assay: Exposure experiment through drinking water; format: in vivo; details: 10-day exposure via drinking water; no statistically significant difference (P>0.05)
Experimental: Mice with a maximal difference in body weight of 1 g were selected for the experiments and randomly assigned to either the treatment or control groups. […] The animals were fed ad libitum an oestrogen-free diet from Trophic Animal Feed High-tech Co., Ltd. (Nantong, China), and drinking water was provided ad libitum in glass bottles. Before the experiments, the mice were randomly assigned to five groups (n=8). Ultra-pure water was used as a control. FULV was dissolved in ultra-pure water to a concentration of 100 ng l^−1 and used as a positive control. […] Two plastic drinking bottles labelled ‘BPA-free', of different brands, were purchased and denoted Bottle A and Bottle B. The plastic bottles were filled with boiling ultra-pure water from a stainless steel electric water heater and allowed to cool down to room temperature before the animal experiment. The BHPF levels in the cooled boiled waters from Bottle A, Bottle B and the stainless steel electric water heater were determined by GC–MS. No BHPF was detected in the cooled boiled water from the stainless steel electric water heater. The cooled boiled waters from Bottle A and Bottle B were transferred to glass bottles during the experiment. The exposure experiment was performed for 10 days beginning on PND 24. After the period of exposure, the mice were weighed and killed in turns for each group, whereby in each turn only one mouse in a group was killed. Blood was collected by cardiac puncture soon after each animal was killed, and the uteri were removed, blotted and weighed by one experimenter to reduce the risk of bias in the data collection and immediately frozen in liquid nitrogen for gene expression analysis. The relative uterine weight was calculated to evaluate the anti-uterotrophic activity. […] The serum BHPF levels were analysed by GC–MS using the same method as that for human serum. The gene expressions of sprr2a and sprr2b in the uteri were determined by Q-RT-PCR.

Oc1ccc(C2(c3ccc(O)cc3)c3ccccc3-c3ccccc32)cc1 [BHPF, 9,9-bis(4-hydroxyphenyl)-fluorene]
Actb gene expression change, liver, Q-RT-PCR (CD-1 mice): 1.25 | Actb gene expression change, ovary, Q-RT-PCR (CD-1 mice): 1.13 | Actb gene expression change, uterus, Q-RT-PCR (CD-1 mice): 1.13 | Cfd gene expression change, liver, Q-RT-PCR (CD-1 mice): -2.43 | Cfd gene expression change, ovary, Q-RT-PCR (CD-1 mice): 2.28 | Cfd gene expression change, uterus, Q-RT-PCR (CD-1 mice): -2.85 | Orm1 gene expression change, liver, Q-RT-PCR (CD-1 mice): -1.41 | Orm1 gene expression change, ovary, Q-RT-PCR (CD-1 mice): 2.19 | Orm1 gene expression change, uterus, Q-RT-PCR (CD-1 mice): 5.17 | Spp1 gene expression change, liver, Q-RT-PCR (CD-1 mice): -1.51 | Spp1 gene expression change, ovary, Q-RT-PCR (CD-1 mice): -1.68 | Spp1 gene expression change, uterus, Q-RT-PCR (CD-1 mice): 3.43 | Sprr1a gene expression change, liver, Q-RT-PCR (CD-1 mice): 4.11 | Sprr1a gene expression change, ovary, Q-RT-PCR (CD-1 mice): 1.16 | Sprr1a gene expression change, uterus, Q-RT-PCR (CD-1 mice): -2.01 | Sprr2a2 gene expression change, liver, Q-RT-PCR (CD-1 mice): 3.43 | Sprr2a2 gene expression change, ovary, Q-RT-PCR (CD-1 mice): -8.94 | Sprr2a2 gene expression change, uterus, Q-RT-PCR (CD-1 mice): -5.70 | Sprr2b gene expression change, liver, Q-RT-PCR (CD-1 mice): 4.76 | Sprr2b gene expression change, ovary, Q-RT-PCR (CD-1 mice): -9.65 | Sprr2b gene expression change, uterus, Q-RT-PCR (CD-1 mice): -9.58 | Sprr2f gene expression change, liver, Q-RT-PCR (CD-1 mice): 4.41 | Sprr2f gene expression change, ovary, Q-RT-PCR (CD-1 mice): -5.28 | Sprr2f gene expression change, uterus, Q-RT-PCR (CD-1 mice): -5.78 | Sprr2g gene expression change, liver, Q-RT-PCR (CD-1 mice): 3.68 | Sprr2g gene expression change, ovary, Q-RT-PCR (CD-1 mice): -5.70 | Sprr2g gene expression change, uterus, Q-RT-PCR (CD-1 mice): -1.83 | chil3 gene expression change, liver, Q-RT-PCR (CD-1 mice): -2.81 | chil3 gene expression change, ovary, Q-RT-PCR (CD-1 mice): -3.92 | chil3 gene expression change, uterus, Q-RT-PCR (CD-1 mice): -3.07 | cyp2e1 gene expression change, liver, Q-RT-PCR (CD-1 mice): 4.06 | cyp2e1 gene expression change, ovary, Q-RT-PCR (CD-1 mice): 1.69 | cyp2e1 gene expression change, uterus, Q-RT-PCR (CD-1 mice): 4.00 | ll1f6 gene expression change, liver, Q-RT-PCR (CD-1 mice): 2.66 | ll1f6 gene expression change, ovary, Q-RT-PCR (CD-1 mice): -4.29 | ll1f6 gene expression change, uterus, Q-RT-PCR (CD-1 mice): -4.66 | serp1d gene expression change, liver, Q-RT-PCR (CD-1 mice): 2.48 | serp1d gene expression change, ovary, Q-RT-PCR (CD-1 mice): 1.59 | serp1d gene expression change, uterus, Q-RT-PCR (CD-1 mice): 30.91 | GAPDH gene expression change, liver, Q-RT-PCR (CD-1 mice; endogenous control): 1.00 | GAPDH gene expression change, ovary, Q-RT-PCR (CD-1 mice; endogenous control): 1.00 | GAPDH gene expression change, uterus, Q-RT-PCR (CD-1 mice; endogenous control): 1.00 | expression of sprr2a in the uteri (Q-RT-PCR) (female CD-1 mice): decreased
